Test results from patent US7943382B2, “Method for inspecting fat-soluble vitamin and/or fat-soluble food factor by saliva analysis” (Mitsubishi Chemical Medience Corporation, priority 2004, dated 2011).

Legend:
[1] = Transition of the CoQ10 level in parotid saliva depending on ingestion states of Supplement N; type: in vivo, human
Description: For the ingestion test of CoQ10, commercial supplement S containing CoQ10 of 50 mg per one tablet and commercial supplement N containing 30 mg per one tablet were used. 10 volunteers in the group S and 10 volunteers in the group N were made to ingest orally the supplement s and the supplement N respectively. For ingestion of supplement S, each volunteer was made to ingest orally two tablets at 9:00 every morning continuously for a week, and for the next week, made to ingest orally double amount, four tablets at 9:00 every morning continuously, and then stopped from ingestion for two weeks. For ingestion of supplement N, each volunteer was made to ingest orally three tablets at 9:00 every morning continuously for a week, and for the next week, made to ingest orally double amount, six tablets at 9:00 every morning continuously, and then stopped from ingestion for two weeks. As specimens in both the groups S and N, parotid saliva and heparinized plasma were collected from PM 4:00 to 5:00, total four times, that is, before and one week after ingestion, at double dose ingestion, and two weeks after discontinuation of ingestion. The volunteer had the mouth rinsed with water prior to collection, kept quiet on a chair for 5 minutes, while the volunteer accumulated saliva in the oral cavity and discharged to initialize the oral cavity, followed by collecting parotid saliva. For collection of parotid saliva, the Saliva-sampler is inserted between the teeth and the cheek near the open of the parotid gland, the volunteer sat quiet on a chair, during which saliva was collected, while the volunteer swallowed saliva, which was secreted from the sublingual gland and the submandibular gland and accumulated in the mandible, to prevent contamination with the saliva from the sublingual gland and the submandibular gland. For analysis of CoQ10 in saliva collected from the parotid gland, the Saliva-sampler with absorbed saliva was transferred to the peculiar tube holding 1 ml of 50% ethanol, to which […] of ethanol was added to have a final concentration of […]. […]

[2] = Extraction of CoQ10 from saliva and absorbent depending on deproteinization solvent; type: physicochemical
Description: In the method of preparing the specimens in examples 1 and 2, the solvents were weighed using ethanol (90, 75, 50%), isopropanol (90, 75, 50%) or methanol (90, 75, 50%). Saliva of 600 μl, and 600, 1800 and 5400 μl of the solvent respectively were added to 50 mg of an absorbent to have a final concentrations of 50, 75 and 90% (V/V) respectively. The resultant solution was mixed, stirred, and centrifuged at 4° C. by 1000 G to get a supernatant, 20 μl of which was used to analyze CoQ10 by HPLC. As a result, the values shown in the following Table 2 “The CoQ10 concentrations in the supernatant obtained by deproteinizing saliva in three solvents and at three concentration levels (ng/ml)” were obtained. Ethanol, which was not affected by adsorption to proteins even at a concentration of 75% and could efficiently extract, was confirmed to be most suitable.

[3] = Extraction of CoQ10 from absorbent materials with 75% (V/V) ethanol; type: physicochemical
Description: In the method of preparing the specimens in example 2, the absorbent materials for saliva and the collection rate by extraction with 75% (V/V) ethanol were weighed. An absorbent of 50 mg was soaked in 600 μl of saliva, to which […] of ethanol was added, mixed, and centrifuged at 4° C. by 1000 G or 5 minutes to remove proteins, and 20 μl of the supernatant was subjected to HPLC. The results of analysis for CoQ10 are shown in Table 3 as “CoQ10 concentrations in saliva which was obtained by steps that 50 mg of the absorbent was soaked in 600 μl of saliva and the saliva was extracted with 1800 μl of ethanol (final concentration: 75%)”. […] Thus, although the fat-soluble components in saliva are adsorbed to the absorbent, the content in a certain amount of saliva can be determined by analyzing the summation of the fat-soluble food factors and the fat-soluble vitamins contained in saliva preserved in the absorbent and interspace.

[4] = Acetylcellulose + ethanol (final concentration 75%)
[5] = Cotton + ethanol (final concentration 75%)
[6] = Polyester + ethanol (final concentration 75%)
[7] = Polyurethane + ethanol (final concentration 75%)

transition of the CoQ10 level in parotid saliva ([1]; volunteer N9, ingestion approximately three hours after breakfast): small increase
transition of the CoQ10 level in parotid saliva ([1]; volunteers N1 and N5 (no or often lacking breakfast), increased amount of the supplement): hardly increased
Collection amount of CoQ10 by the solvents ([2]; ethanol 50 V/V %): 3 ng/mL
Collection amount of CoQ10 by the solvents ([2]; ethanol 75 V/V %): 86 ng/mL
Collection amount of CoQ10 by the solvents ([2]; ethanol 90 V/V %): 98 ng/mL
Collection amount of CoQ10 by the solvents ([2]; isopropanol 50 V/V %): 23 ng/mL
Collection amount of CoQ10 by the solvents ([2]; isopropanol 75 V/V %): 19 ng/mL
Collection amount of CoQ10 by the solvents ([2]; isopropanol 90 V/V %): 56 ng/mL
Collection amount of CoQ10 by the solvents ([2]; methanol 50 V/V %): 2 ng/mL
Collection amount of CoQ10 by the solvents ([2]; methanol 75 V/V %): 2 ng/mL
Collection amount of CoQ10 by the solvents ([2]; methanol 90 V/V %): 61 ng/mL
CoQ10 concentration in saliva after extraction [3, 4]: 31.8 ng/mL
Collection rate [3, 4]: 94.3%
CoQ10 concentration in saliva after extraction [3, 5]: 32.2 ng/mL
Collection rate [3, 5]: 95.6%
CoQ10 concentration in saliva after extraction [3, 6]: 34.2 ng/mL
Collection rate [3, 6]: 102%
CoQ10 concentration in saliva after extraction [3, 7]: 32.1 ng/mL
Collection rate [3, 7]: 95.2%
CoQ10 concentration in saliva ([3]; Saliva (control)): 33.7 ng/mL
Collection rate ([3]; Saliva (control)): 100%
collection by extraction, independent of the absorbent material ([3]; ethanol 75% (V/V)): approximately 100%
SMILES: COC1=C(OC)C(=O)C(C/C=C(\C)CC/C=C(\C)CC/C=C(\C)CC/C=C(\C)CC/C=C(\C)CC/C=C(\C)CC/C=C(\C)CC/C=C(\C)CC/C=C(\C)CCC=C(C)C)=C(C)C1=O [CoQ10, Ubidecarenone]
transition of the CoQ10 level in parotid saliva ([1]; 3 tablets/day one week, 6 tablets/day next week, then two weeks discontinuation, other 7 volunteers, FIG. 7): increased by ingestion of the supplement with CoQ10, furthermore increased by more ingestion, and decreased after discontinuation of ingestion
